Earlier results in patent US11311853B2, “Process for the preparation of double crosslinked core-shell polymeric nanoparticles for multimodal imaging and theranostic applications” (FONDAZIONE ISTITUTO ITALIANO DI TECNOLOGIA, priority 2017, dated 2022).

Details: commercial Gd-DTPA

In the case of `O=C([O-])CN(CCN(CC(=O)[O-])CC(=O)O)CCN(CC(=O)[O-])CC(=O)O.[Gd+3]` [Gd-DTPA, Gd-diethylenetriaminepentaacetic acid], the relaxivity in MRI is given as 4 mM⁻¹ s⁻¹.
